The values below come from patent publication US8524703B2, “Bridgehead amine ring-fused indoles and indolines” (AbbVie Inc., priority 2009, dated 2013).

pEC50: −log10 of the molar value. “Also recorded” adds a separate entry of the source.

Data set [1] deals with primary postnatal (P0) cortical cells. Description: Neurite Outgrowth Assay (neuroprotection against Aβ1-42-induced reduction of neurite outgrowth). The data set is classed as cell-based, rat. The settings on record: for % Attenuation Effect of 5 μM Aβ 1-42: 5 μM Aβ1-42, 3 days, compound pretreatment about 5 hours; for Emax at 0.3 µM / Emax at 3 µM: Rattus norvegicus, relative to 300 nM dimebolin, read-out: Maximum Effect (of % 300 nM Dimebolin) at Concentration; for Emax at 0.3 µM: maximum response at 300 nM test compound; for Emax at 3 µM: maximum response at 3000 nM test compound. The procedure:
In addition to PC12 cells, other cellular model systems may also be used. Rat cortical cells can be cultured and prepared for high content microscopy analysis as previously described (Hu, M.; Schurdak, M. E.; et al. High content screen microscopy analysis of Aβ1-42-induced neurite outgrowth reduction in rat primary cortical neurons: Neuroprotective effects of α7 neuronal nicotinic acetylcholine receptor ligands. Brain Res. 2007, 1151, 227-235.). Briefly, cortical cell cultures are plated at density of 5×10^5 cells/mL onto poly-D-lysine coated 96-well plates and maintained in a cell incubator at 37° C. with 5% CO2. Experiments are performed using 6-7 day-old cortical cell cultures by treating with test compounds. In some experiments, the effect of test compounds on reversing Aβ toxicity can also be measured (Hu, M.; Schurdak, M. E.; et al. High content screen microscopy analysis of Aβ1-42-induced neurite outgrowth reduction in rat primary cortical neurons: Neuroprotective effects of α7 neuronal nicotinic acetylcholine receptor ligands. Brain Res. 2007, 1151, 227-235.). For assessment of neuroprotective effects, cells are first pretreated with test compounds for about 5 hours. Medium is then replaced with the medium containing freshly prepared about 5 μM Aβ1-42 peptide in the absence or presence of the test compounds for 3 days. The untreated group contains the same percentage of vehicle (DMSO) as in the treatment groups. Cells are fixed with approximately 4% paraformaldehyde containing 0.5% Hoechst 33342 for about 15 minutes, followed by three washes using PBS (pH 7.4) and blocked with 10% donkey serum in PBS for 1 hour at room temperature. The cells are then incubated overnight at about 4° C. with mouse anti-tubulin monoclonal antibody (1:100) for staining neurons and rabbit anti-GFAP (1:1000) for staining glia. In the next day, cells are incubated with FITC-labeled anti-mouse and TRITC-labeled anti-rabbit antibodies (1:1000) for about 1 hour at room temperature. After fixing and staining the cells, nuclei (360/400 nm excitation and 465/300 nm emission filters), neuron (475/350 nm excitation and 535/400 nm emission filters) and glial cell (535 nm excitation and 610 nm emission filters) images are collected using the ImageExpress Micro automatic fluorescent microscopy system (Molecular Devices, Sunnyvale, Calif.) employing a Nikon 10× Plan Fluor objective and Cool Snap HQ CCD camera. The Neurite Outgrowth module in the MetaMorph Imaging software can be used to automatically count total cell number, number of neuron cells, and the extent of neurite outgrowth.
The neurite outgrowth observed for untreated cells is set to 100% response. Treatment of cells with compounds prior to and concomitantly with Aβ1-42 gave a neuroprotective effect with neurite outgrowth maintained or enhanced relative to untreated cells.

The test system of data set [2] is SK-N-SH human neuroblastoma cells. Description: Serum Deprivation/JC-1 Mitochondrial Membrane Potential (MMP) Assay. Format: cell-based. The following applies: Homo sapiens, SK-N-SH; for Emax: percent maximal JC-1 ratio normalized to peak value for 10 μM dimebolin, read-out: JC-1 max %; for pEC50: serum deprivation ~18 hours, JC-1 ratio normalized to peak value for 10 μM dimebolin. Here is the method: Tissue Culture: SK-N-SH human neuroblastoma cells obtained from American Type Culture Collection (Rockville, Md.) were maintained in the log phase of growth in Minimal Essential Media (MEM), 10% heat inactivated fetal calf serum and 100 units/mL antibiotic-antimycotic (AA). Cells were cultured and maintained in a humidified incubator at 37° C. under 5% CO2 and 95% air. Cells were trypsinized (0.25%) and subcultured every 3 days and used from 15-18 passages. All cell culture supplies were obtained from Invitrogen (Carlsbad, Calif.).
Serum Deprivation/JC-1 Mitochondrial Membrane Potential (MMP) Assay.
SK-N-SH cells were plated 2-3 days in advance at a concentration of 50,000 cells/well onto collagen coated black-walled 96 well plates (Becton-Dickinson, Bedford, Mass.) in a total volume of 200 μL. On day of experimental treatment, the media containing serum was aspirated from each well and rinsed once with MEM/1% AA without serum. The cells then were incubated overnight in 100 μL of MEM/1% AA (no serum) with and without dimebolin or novel chemical entities overnight for ˜18 hours. The following day, JC-1 dye (5,5′,6,6′-tetrachloro-1,1′,3,3′-tetraethylbenzimidazolcarbocyanide) was diluted 1:10 into MEM media according to the JC-1 Mitochondrial Membrane Potential Assay Kit: (Cayman Chemical Company, Ann Arbor, Mich.) and then 10 μL of the JC-1 dye solution was added to each well. The plates were centrifuged for 5 minutes at 400×g at room temperature followed by 40 minute incubation at 37° C. The plates were washed twice with 200 μL of provided Assay Buffer followed an addition of 100 μL of Assay Buffer to each well. The plates were read with an excitation and emission of 560 nm and 595 nM for red fluorescence and with an excitation and emission of […] and 535 nM for green fluorescence to determine the final JC-1 value taking the red to green fluorescence ratio. This assay is based on change in mitochondrial membrane potential (MMP) using this lipophilic cationic dye, JC-1, by monitoring the changes in the ratio of red to green fluorescence as the MMP depolarizes. This change in MMP reflects the health of the cell with healthy, viable cells have a high JC-1 ratio and high MMP whereas apoptotic, unhealthy cells have a low JC-1 ratio or low MMP.
For the ability of compounds to reverse the stress due to serum deprivation and increase the JC-1 ratio, the percent maximal intensity in JC-1 ratio was normalized to that induced by the peak value for 10 μM dimebolin and plotted against the compound concentration to calculate EC50 values and to control for plate-to-plate variability. Concentration-response data were analyzed using GraphPad Prism (San Diego, Calif.); the EC50 values were derived from a single curve fit to the mean data of n=2-3, in duplicates.
All compounds were dissolved in dimethyl sulfoxide at 10 mM stock solutions and tested at a concentration that the dimethyl sulfoxide levels never exceeded 1%.

Data set [3] has as its system primary rat cortical neurons. The following applies: comparable to that evoked by BDNF; cited from earlier work.
Data set [4] relates to Patients with mild-to-moderate Alzheimer's disease. The settings on record: cited from earlier work.
In another data set the test system is mice. Kind of data set: Inhibitory Avoidance in Mouse (24-hour recall). Format: in vivo. The following applies: 24 hours after initial exposure, 0.001, 0.01, 0.1, and 1.0 mg/kg i.p., versus control. The procedure:
Inhibitory Avoidance in Mouse: The inhibitory avoidance task involves the uses of a two-compartment step through apparatus (Ugo Basile, Collegeville, Pa.) that measures the animal's ability to remember a brief noxious stimulus (foot shock), and is considered a measure of trial learning, and memory consolidation. Briefly, 30 minutes after dosing, mice were placed in a lighted compartment of the apparatus where the latency to enter into the preferred dark compartment is recorded. Entry into a dark compartment results in the immediate delivery of a mild foot shock (0.2 mA, 1-second duration). Retention testing is conducted 24 hours later with the animal again placed in the lighted compartment where its latency to reenter the dark side of the apparatus is measured (no shock). Increasing retention latency is regarded as an index of memory consolidation (Bitner, R. S.; Bunnelle, W. H.; et al. Broad-spectrum efficacy across cognitive domains by α7 nicotinic acetylcholine receptor agonism correlates with activation of ERK1/2 and CREB phosphorylation pathways. J. Neurosci. 2007, 27 (39), 10578-10587.). […] (*p<0.05; **p<0.01, ***p<0.001 versus control)

As to `Cc1ccc(/C=C/c2ccc3[nH]c4c(c3c2)CN2CCC4CC2)cn1` [Example 8, 9-[(E)-2-(6-methylpyridin-3-yl)vinyl]-3,4,5,6-tetrahydro-1H-2,5-ethanoazepino[4,3-b]indole], in data set [1], the “% Attenuation Effect of 5 μM Aβ 1-42” value is given as 49% and the Emax at 0.3 µM is 121%. In data set [2], the Emax was determined as 162% and the pEC50 was 5.39.

As to `Cc1ccc2c(c1)c1c(n2CCc2ccc(C)nc2)CCN(C)C1` [dimebolin, 2,3,4,5-tetrahydro-2,8-dimethyl-5-[2-(6-methyl-3-pyridinyl)ethyl]-1H-pyrido[4,3-b]indole], the neurite outgrowth result in data set [3] is recorded as “increase neurite outgrowth”. Also, in data set [4] (20 mg three times a day (60 mg/day)), the “clinical course of disease, improvement over baseline for ADAS-Cog” value was “significant improvement”. Also, the “most frequent adverse event” value in data set [4] (recently reported clinical studies) is reported as “dry mouth”.

As for `Cc1ccc(C#Cc2cccc3c4c([nH]c23)C2CCN(CC2)C4)cn1` [Example 3, 7-[(6-methylpyridin-3-yl)ethynyl]-3,4,5,6-tetrahydro-1H-2,5-ethanoazepino[4,3-b]indole], in data set [1], the “% Attenuation Effect of 5 μM Aβ 1-42” value stood at 43% and the Emax at 3 µM turned out to be 115%. Moreover, in data set [2], the Emax amounted to 188% and the pEC50 is 5.36. Besides, the “latency to reenter the dark side (punishment side)” value in the data set on mice is given as “significantly increased; also recorded: concentration-dependent improvement”.

Turning to `Cc1ccc(/C=C/c2cccc3c4c([nH]c23)C2CCN(CC2)C4)cn1` [Example 1, 7-[(E)-2-(6-methylpyridin-3-yl)vinyl]-3,4,5,6-tetrahydro-1H-2,5-ethanoazepino[4,3-b]indole], in data set [1], the “% Attenuation Effect of 5 μM Aβ 1-42” value was 34% and the Emax at 3 µM is 106%. Besides, in data set [2], the Emax was determined as 139% and the negative logarithm of the EC50 (pEC50) is 5.22. Besides, the “latency to reenter the dark side (punishment side)” value with mice is “significantly increased; also recorded: concentration-dependent improvement”.

On to `Cc1ccc(C#Cc2cccc3[nH]c4c(c23)CN2CCC4CC2)cn1` [Example 23, 10-[(6-methylpyridin-3-yl)ethynyl]-3,4,5,6-tetrahydro-1H-2,5-ethanoazepino[4,3-b]indole], for which, in data set [2], the Emax worked out at 140% and the pEC50 was 5.14.

In the case of `Cc1ccc(CCc2cccc3c4c([nH]c23)CN2CCC4CC2)cn1` [Example 33, 9-[2-(6-methylpyridin-3-yl)ethyl]-3,4,5,10-tetrahydro-1H-2,5-ethanoazepino[3,4-b]indole], in data set [2], the Emax came out at 197% and the pEC50 is 5.22.

`C(=C\c1cccc2c3c([nH]c12)C1CCN(CC1)C3)/c1ccccc1` [Example 19, 7-[(E)-2-phenylvinyl]-3,4,5,6-tetrahydro-1H-2,5-ethanoazepino[4,3-b]indole]: in data set [2], the Emax came to 64% and the pEC50 was 5.45.

With `c1cnc2ccc(-c3cccc4c5c([nH]c34)C3CCN(CC3)C5)cc2c1` [Example 27, 7-quinolin-6-yl-3,4,5,6-tetrahydro-1H-2,5-ethanoazepino[4,3-b]indole], in data set [1], the “% Attenuation Effect of 5 μM Aβ 1-42” value worked out at 38% and the Emax at 0.3 µM turned out to be 109%. For the same compound, in data set [2], the Emax turned out to be 133% and the pEC50 is 5.19.

On to `Clc1ccc(/C=C/c2cccc3c4c([nH]c23)C2CCN(CC2)C4)cc1` [Example 4, 7-[(E)-2-(4-chlorophenyl)vinyl]-3,4,5,6-tetrahydro-1H-2,5-ethanoazepino[4,3-b]indole], for which, in data set [2], the Emax was 123% and the negative-log EC50 (pEC50) is 5.39.

For the compound `FC(F)(F)Oc1ccc(C#Cc2cccc3c4c([nH]c23)C2CCN(CC2)C4)cc1` [Example 20, 7-{[4-(trifluoromethoxy)phenyl]ethynyl}-3,4,5,6-tetrahydro-1H-2,5-ethanoazepino[4,3-b]indole], in data set [2], the Emax amounted to 47% and the pEC50 is less than 4.52.

As to `C(=C\c1cccc2c3c([nH]c12)C1CCN(CC1)C3)/CCCc1ccccc1` [Example 5, 7-[(1E)-5-phenylpent-1-enyl]-3,4,5,6-tetrahydro-1H-2,5-ethanoazepino[4,3-b]indole], in data set [2], the Emax came out at 58% and the pEC50 was 5.28.

On to `C(=C\c1cccc2c3c([nH]c12)C1CCN(CC1)C3)/c1ccsc1` [Example 6, 7-[(E)-2-thien-3-ylvinyl]-3,4,5,6-tetrahydro-1H-2,5-ethanoazepino[4,3-b]indole], for which, in data set [2], the Emax was determined as 67% and the pEC50 was 5.18.

Consider `Cc1ccc(/C=C/c2cccc3c4c([nH]c23)CN2CCC4CC2)cn1` [Example 32, 9-[(E)-2-(6-methylpyridin-3-yl)vinyl]-3,4,5,10-tetrahydro-1H-2,5-ethanoazepino[3,4-b]indole], for which, in data set [2], the Emax came out at 199% and the pEC50 was 5.44.

For the compound `C(#Cc1cccc2c3c([nH]c12)C1CCN(CC1)C3)c1ccncc1` [Example 21, 7-(pyridin-4-ylethynyl)-3,4,5,6-tetrahydro-1H-2,5-ethanoazepino[4,3-b]indole], in data set [2], the Emax is 104% and the pEC50 was 5.43.
